Test results from patent US12516288B2, “Method for producing enteric neural precursors” (Kyoto University, priority 2018, dated 2026).
Structures can show the parent of a compound that is named as a salt. Where two headings read alike, the source gives them in different places.

Columns and labels:
[1] = system: artificial intestinal tract formed from an intestinal organoid; experiment: Organ bath assay: contractile and relaxant responses of artificial intestinal tract to electrical stimulation; design: species or system human
[2] = system: vagal neural crest cells; experiment: Study on composition of enteric neural precursor medium (NRG1 and/or GDNF not added); type: cell-based, human; conditions: for cell proliferation: enteric neural precursor medium without the named factor (factor-free conditions)
Method: The medium was aspirated and replaced with PBS. Then, the cells were detached using a cell scraper. The detached cell mass was dissociated by pipetting in Accutase® (Innovative Cell Technologies, Inc.). Then, MACS® Buffer (Miltenyi Biotec) was added thereto, and the cells were prepared into single cells through a 40 µm cell strainer. The obtained cell suspension was centrifuged at 300×g for 3 minutes. Then, the supernatant was removed, and the cells were suspended in an enteric neural precursor medium. The enteric neural precursor medium used was a mixture of solutions A and B of Stem Fit® AK03N containing 10 μM SB431542 (FUJIFILM Wako Pure Chemical Corp.), 1 μM CHIR99021 (Axon MedChem), 1 μM retinoic acid (FUJIFILM Wako Pure Chemical Corp.), 100 ng/mL neuregulin 1 (NRG1) (PeproTech, Inc.) and […] glial cell-derived neurotrophic factor (GDNF) (FUJIFILM Wako Pure Chemical Corp.). For adherent culture, Matrigel® (Corning Inc.) was added at 2% to the cell suspension, which was then cultured using a multiwell plate (Corning Inc.). For suspension culture, a multiwell plate (Corning Inc.) treated for low cell adhesion was used. The culture in both cases was carried out at 37° C. under 5% CO2.
Vagal neural crest cells were cultured in an enteric neural precursor medium under the same conditions as in Test Example 4 except that NRG1 and/or GDNF was not added to the enteric neural precursor medium. The cells were observed under a fluorescence microscope (BZ-X700, Keyence Corp.). Also, flow cytometry analysis was conducted by the same method as in Test Example 5.

Which “contractile response to electrical stimulation” value [1] does the source give for CN1[C@@H]2CC[C@H]1C[C@@H](OC(=O)C(CO)c1ccccc1)C2 (some centres unmarked) [atropine sulfate monohydrate] here?
The value was “partially canceled”.

With CC(COc1ccccc1)N(CCCl)Cc1ccccc1 (centres unmarked) [phenoxybenzamine hydrochloride] as the molecule, how does the “contractile response to electrical stimulation” value [1] read?
The value was “partially canceled”.

CC(C)NCC(O)COc1cccc2ccccc12 (centres unmarked) [propranolol hydrochloride] was tested. Which “contractile response to electrical stimulation” value ([1]; addition of 10 μM, strip of artificial intestinal tract in Krebs solution) did it give?
Its value is “partially canceled”.

For COC(=O)[C@@H](N)CCCN=C(N)N[N+](=O)[O-].Cl [NG-nitro-L-arginine methyl ester hydrochloride], which “relaxant response dependent on electrical stimulation” value ([1]; after atropine, phenoxybenzamine, propranolol, concentration not given) is on record?
Its value is “disappeared”.

For NC1=N[C@H](O)[C@H]2[C@H]3O[C@]4(O)O[C@@H]([C@@H](O)[C@@]2(N1)[C@@H]4O)[C@]3(O)CO [tetrodotoxin], which “cancelation of the contractile response by atropine, phenoxybenzamine or propranolol” value [1] is on record?
Its value is “disappeared”.

B1: GDNF: factor encoded by GDNF gene; acts as an agonist of GFRα1 and RET (protein, UniProt P39905 78-211, looked up)
Glial cell line-derived …: SPDKQMAVLPRRERNRQAAAANPENSRGKGRRGQRGKNRGCVLTAIHLNVTDLGLGYETKEELIFRYCSGSCDAAETTYDKILKNLSRNRRLVSDKVGQACCRPIAFDDDLSFLDDNLVYHILRKHSAKRCGCI
For B1, which cell proliferation [2] is on record?
The cell proliferation was “slower than that under the conditions involving GDNF”.

B2: NRG1: EGF-like growth factor encoded by NRG1 gene; activates downstream signaling by binding to ERBB3 and ERBB4 (protein, listed as Homo sapiens)
chain: MSERKEGRGKGKGKKKERGSGKKPESAAGSQSPALPPRLKEMKSQESAAGSKLVLRCETSSEYSSLRFKWFKNGNELNRKNKPQNIKIQKKPGKSELRINKASLADSGEYMCKVISKLGNDSASANITIVESNEIITGMPASTEGAYVSSESPIRISVSTEGANTSSSTSTSTTGTSHLVKCAEKEKTFCVNGGECFMVKDLSNPSRYLCKCPNEFTGDRCQNYVMASFYKHLGIEFMEAEELYQKRVLTITGICIALLVVGIMCVVAYCKTKKQRKKLHDRLRQSLRSERNNMMNIANGPHHPNPPPENVQLVNQYVSKNVISSEHIVEREAETSFSTSHYTSTAHHSTTVTQTPSHSWSNGHTESILSESHSVIVMSSVENSRHSSPTGGPRGRLNGTGGPRECNSFLRHARETPDSYRDSPHSERYVSAMTTPARMSPVDFHTPSSPKSPPSEMSPPVSSMTVSMPSMAVSPFMEEERPLLLVTPPRLREKKFDHHPQQFSSFHHNPAHDSNSLPASPLRIVEDEEYETTQEYEPAQEPVKKLANSRRAKRTKPNGHIANRLEVDSNTSSQSSNSESETEDERVGEDTPFLGIQNPLAASLEATPAFRLADSRTNPAGRFSTQEEIQARLSSVIANQDPIAV
Which results are given for B2?
cell number necessary for conducting flow cytometry ([2]; enteric neural precursor medium without the named factor): not obtained; cell proliferation [2]: very slow
